One assay has as its target T1, TYK2 (Homo sapiens, UniProt P29597).
T1 construct: purchased CEREP Panlabs (Eurofins)
Nature of the assay: CEREP protein kinase assay. Format: biochemical.

In another assay the target is T2, EPHA5 (Homo sapiens, UniProt P54756).
T2 construct: purchased CEREP Panlabs (Eurofins)
Briefly: CEREP protein kinase assay. Format: biochemical.

Broadly, the inhibition is the relative decrease from the control value, in per cent.

T1 sequence (P29597 whole entry): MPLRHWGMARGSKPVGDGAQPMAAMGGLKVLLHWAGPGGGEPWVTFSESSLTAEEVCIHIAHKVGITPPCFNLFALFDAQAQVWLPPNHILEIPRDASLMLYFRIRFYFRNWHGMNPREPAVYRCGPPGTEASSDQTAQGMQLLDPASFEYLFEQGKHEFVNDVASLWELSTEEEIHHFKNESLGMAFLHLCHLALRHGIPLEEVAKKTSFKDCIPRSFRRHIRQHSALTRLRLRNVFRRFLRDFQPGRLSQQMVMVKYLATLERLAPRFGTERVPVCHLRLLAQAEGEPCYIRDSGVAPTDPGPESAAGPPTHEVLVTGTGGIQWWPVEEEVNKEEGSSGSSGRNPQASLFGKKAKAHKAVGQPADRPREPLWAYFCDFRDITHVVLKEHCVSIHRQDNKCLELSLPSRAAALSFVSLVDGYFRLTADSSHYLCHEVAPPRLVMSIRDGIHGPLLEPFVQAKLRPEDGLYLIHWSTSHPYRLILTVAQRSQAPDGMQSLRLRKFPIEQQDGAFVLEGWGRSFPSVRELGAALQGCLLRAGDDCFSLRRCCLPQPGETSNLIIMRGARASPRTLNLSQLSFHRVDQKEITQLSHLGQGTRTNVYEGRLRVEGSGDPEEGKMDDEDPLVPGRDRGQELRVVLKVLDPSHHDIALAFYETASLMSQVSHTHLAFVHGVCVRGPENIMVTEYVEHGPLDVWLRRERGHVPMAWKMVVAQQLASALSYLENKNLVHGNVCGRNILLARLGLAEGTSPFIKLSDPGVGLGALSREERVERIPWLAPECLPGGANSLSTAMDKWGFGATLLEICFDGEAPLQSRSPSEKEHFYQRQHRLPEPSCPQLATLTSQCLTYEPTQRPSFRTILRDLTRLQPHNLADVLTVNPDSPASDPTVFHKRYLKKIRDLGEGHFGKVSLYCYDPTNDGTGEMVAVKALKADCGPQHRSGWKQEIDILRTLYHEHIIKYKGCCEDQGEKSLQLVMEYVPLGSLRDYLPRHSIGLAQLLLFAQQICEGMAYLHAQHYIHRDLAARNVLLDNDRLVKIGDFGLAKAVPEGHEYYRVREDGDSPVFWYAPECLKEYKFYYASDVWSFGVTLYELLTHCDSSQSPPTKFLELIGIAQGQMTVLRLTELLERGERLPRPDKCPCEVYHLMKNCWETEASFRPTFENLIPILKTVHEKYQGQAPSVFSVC
T2 sequence (P54756 25-1037): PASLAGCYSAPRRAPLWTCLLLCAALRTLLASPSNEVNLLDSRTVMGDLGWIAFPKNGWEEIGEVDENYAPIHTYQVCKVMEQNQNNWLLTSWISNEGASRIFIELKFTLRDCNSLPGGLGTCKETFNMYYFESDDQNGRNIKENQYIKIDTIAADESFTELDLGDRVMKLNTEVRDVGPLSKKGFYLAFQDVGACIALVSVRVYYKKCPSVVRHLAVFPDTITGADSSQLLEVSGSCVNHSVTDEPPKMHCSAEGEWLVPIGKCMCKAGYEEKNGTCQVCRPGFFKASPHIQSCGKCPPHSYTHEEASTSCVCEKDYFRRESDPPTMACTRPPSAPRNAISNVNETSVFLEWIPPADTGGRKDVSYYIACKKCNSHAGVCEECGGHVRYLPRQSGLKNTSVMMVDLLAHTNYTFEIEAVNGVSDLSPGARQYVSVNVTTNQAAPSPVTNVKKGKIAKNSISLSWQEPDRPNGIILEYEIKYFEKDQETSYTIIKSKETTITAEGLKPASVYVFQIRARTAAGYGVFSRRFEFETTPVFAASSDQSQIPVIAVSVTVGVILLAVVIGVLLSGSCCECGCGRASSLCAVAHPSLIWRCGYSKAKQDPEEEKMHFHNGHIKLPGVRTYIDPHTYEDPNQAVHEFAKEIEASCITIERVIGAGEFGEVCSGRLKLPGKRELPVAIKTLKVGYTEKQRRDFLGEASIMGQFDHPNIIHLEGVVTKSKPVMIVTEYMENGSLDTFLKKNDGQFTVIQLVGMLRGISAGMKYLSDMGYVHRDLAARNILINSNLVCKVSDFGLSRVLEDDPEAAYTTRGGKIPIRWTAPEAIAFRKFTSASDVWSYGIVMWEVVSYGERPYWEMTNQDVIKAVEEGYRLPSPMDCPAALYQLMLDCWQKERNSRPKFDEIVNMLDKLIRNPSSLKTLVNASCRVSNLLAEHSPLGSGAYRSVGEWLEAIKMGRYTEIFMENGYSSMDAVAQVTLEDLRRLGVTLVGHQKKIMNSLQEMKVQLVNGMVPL

On to `O=c1[nH]ccc2cc(F)c(NS(=O)(=O)c3ccc(N4CC[C@@H](O)C4)s3)cc12` [LSN3213128, N-(6-Fluoro-1-oxo-1,2-dihydroisoquinolin-7-yl)-5-[(3R)-3-hydroxypyrrolidin-1-yl]thiophene-2-sulfonamide], for which the inhibition at 0.2 µM against TYK2 (@ 0.2 uM) was -6.85%; against EPHA5 (@ 0.2 uM), 3.96%. In addition, the inhibition at 2 µM is -1.32% against TYK2 (@ 2 uM) and 9.58% at EPHA5 (@ 2 uM). Also, the inhibition at 20 µM is 35.1% at TYK2 (@ 20 uM) and 19.4% on EPHA5 (@ 20 uM).
